Reference: US20190083521A1, “COMBINATION THERAPY FOR TREATING CANCER” (Epizyme, Inc., priority 2014, published 2019)
Entries after “also recorded” stand apart in the source; their conditions may differ. One block for each compound: values may come before it.

Experiments:
MV4-11 (MLL-AF4) cells = assay: Combination proliferation assay with Compound A2 (CellTiter-Glo, Chou-Talalay CI); type: cell-based, human
Summary of the method: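 Viability by CellTiter-Glo ATP luminescence; fraction affected versus DMSO controls; combination index by Chou-Talalay method (CI <1 synergy, >1 antagonism).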

MOLM-13 cells [1] = assay: CD11b and CD14 differentiation marker expression by flow cytometry; type: cell-based, human; details: single agents
Procedure: (§1) A Guava EasyCyte HT™ flow cytometer was used to measure DNA content, Annexin V staining and cell surface expression of CD14 and CD11b markers on Days 10 and 14.
(§2) On Day 0 MOLM-13 cells are seeded at 3,000 cells/mL. On Day 7 and Day 10 MOLM-13 cells are counted and reseeded at 50,000 cells/mL. […] On Day 10 They were redosed again. On Day 14 the experiment was terminated. Cells were sampled for CD14 and CD11b analysis on Days 7, 10 and 14.
On day 7, 10, and 14, cells were collected for analysis. The cells were prepared by washing twice in PBS, followed by fixation in 4% formaldehyde for ten minutes at 37° C. After fixation cells were washed and blocked with blocking buffer for 10 minutes at room temperature. Cells were then incubated in presence of anti-CD14, anti-CD11b or anti-IgG antibody for 1 hour at room temperature while rotating. Cells were washed, re-suspended in PBS and 5,000 events were analyzed using ExpressPro software on the GuavaCyte Plus System.

MOLM-13 (MLL-AF9) cells [2] = assay: Combination proliferation assay with Compound A2 (CellTiter-Glo, Chou-Talalay CI); type: cell-based, human; details: for Combination effect, reverse order of addition with Ara-C washout: washed out, then Compound A2 7 days; for Combination effect with Compound A2 (Table 2): MOLM-13 MLL-AF9
Summary of the method: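 Viability by CellTiter-Glo ATP luminescence; fraction affected versus DMSO controls, combination index by Chou-Talalay (CI <1 synergy, >1 antagonism).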

[3] = test system: SKM-1 (non-MLL-rearranged AML) cells; assay: as above; type: cell-based, human
Procedure: (§3) Graphs representing values of combination index (CI) versus Fractional effect (Fa) known as Fa-CI plots were generated and synergy was evaluated.
(§4) Viability was determined using CellTiter-Glo® (Promega).
MV4-11 cells were maintained in IMDM supplemented with 10% fetal bovine serum. MOLM-13 and SKM-1 cells were maintained in Roswell Park Memorial Institute medium (RPMI) supplemented with 10% fetal bovine serum. They were cultured in flasks or plates in a humidified 5% CO2 atmosphere.
Proliferation studies were performed using MOLM-13, MV4-11 and SKM-1 cell lines in vitro to evaluate the cancer cell killing effect of a combination of two agents together on cell growth. Initial proliferation studies were performed to determine the IC50 values of a given compound in each cell line. The cell counts were measured by ATP quantitation using the Promega Cell Titer Glo kit and luminescence values correspond to the amount of ATP in a given well.
Compounds evaluated for synergy in the co-treatment phase were tested in a range which was bracketed around the IC50's. The compounds were plated to a 96 well plate in a matrix format which includes increasing concentrations of each drug in the combination in a constant ratio, in addition to the effect of each compound alone in the study. Cells were seeded and grown in the log-linear phase for 3 or 7 days in the cotreatment phase. Maximum and minimum inhibition (DMSO alone) controls were used in each plate to calculate fraction affected (Fa) of a test well. DMSO concentration was kept at 0.1% v/v. The drug combination analysis was performed utilizing the Chou-Talalay method. Synergy was determined using the software package Calcusyn by Biosoft. The combination index (CI) is the term used to describe the level of synergy or antagonism in a given test system. A combination index less than one indicates synergy, and a CI greater than one indicates antagonism.
The drug combination analysis was performed using the Chou-Talalay method. Graphs representing values of combination index (CI) versus Fractional effect (Fa) known as Fa-CI plots were generated and synergy was evaluated.

EOL-1 (MLL-PTD) cells = assay: Combination proliferation assay with Compound A2 (Chou-Talalay CI); type: cell-based, human; details: EOL-1 (MLL-PTD)
Procedure: as §3, §4

KOPM-88 (MLL-PTD) cells = assay: as above; type: cell-based, human; details: KOPM-88 (MLL-PTD)
Procedure: as §3, §4

MOLM-13 cells [4] = assay: Flow cytometric analysis of cell cycle and Annexin V (apoptosis); type: cell-based, human
Procedure: as §1, §2
To evaluate the fraction of cells in each cell cycle, flow cytometric analysis was performed. FACS analysis for detection of cell death by apoptosis, and cell cycle was performed.
Cells were harvested on days 7, 10 and 14 and split to allow simultaneous analysis of cell cycle and Annexin V staining. Apoptosis was determined using the Guava Nexin Assay (Millipore 4500-0450) and cells were prepared according to the manufacturer's recommendations. Samples were analyzed using the Guava EasyCyte Plus System (Millipore). Cells for cell cycle analysis were pelleted by centrifugation at 200×g for 5 minutes at 4° C., washed twice with ice cold PBS then fixed with 70% ice cold ethanol. All samples were analyzed together at end of experiment. Following fixation cells were washed with PBS and stained with the Guava cell cycle reagent (Millipore 4500-0220) for 30 minutes. Samples were analyzed using the Guava EasyCyte Plus System (Millipore).

MOLM-13 (MLL-AF9) cells [5] = assay: Example 7 retest: EPZ-5676 pre-treatment, second compound 72 h, Cell Titer Glo, growth inhibition; type: cell-based; details: Homo sapiens, 240 h, single agent
SKM-1 (non-MLLr) cells [6] = assay: as above; type: cell-based; details: Homo sapiens, 240 h, single agent
ML-2 (MLL-AF6) cells = assay: as above; type: cell-based; details: 240 h, single agent, read-out: EPZ-5676 10-day IC50
[7] = test system: OCI-AML-4 (MLL-ENL) cells; assay: as above; type: cell-based; details: 240 h, single agent
[8] = test system: OCI-AML-4 (MLL-ENL) cells; assay: Example 7 primary screen: 300 nM EPZ-5676 pre-treatment, second compound 72 h, ATPLite, GI100 shift; type: cell-based; details: 264 h; OCI-AML-4; single agent; read-out: EPZ-5676 11-day (Primary screen) IC50
Procedure: Cells were split using EPZ-5676 or DMSO containing growth media and further incubated for an additional 3-day pre-treatment time. Cells were finally seeded in growth media containing EPZ-5676 or DMSO in 384-well plates at 500 cell/well density. Cells were then equilibrated in incubators for 24 hours before treatment with a second compound. Treated assay plates were incubated with a second compound for 72 hours. After this time, plates were developed for endpoint analysis using ATPLite to measure ATP content, which is used as an indicator of cell viability.
“N/D” means the GI100 of the second compound could not be determined for both conditions and “-” means not tested.
Growth Inhibition (GI) as a measure of cell viability: The cell viability of vehicle was measured at the time of dosing the second agent (T0) and after seventy-two hours (T72). A GI reading of 0% represents no growth inhibition—cells treated with test compound as compared to T72 vehicle signals were measured. […] A GI 200% represents complete death of all cells in the culture well. Compounds reaching an activity plateau of GI 200% are considered cytotoxic. GI is calculated by applying the following test and equation: […]

SKM-1 (non-MLLr) cells [9] = assay: as above; type: cell-based, human; details: Homo sapiens, 264 h; SKM-1; single agent; read-out: EPZ-5676 11-day (Primary screen) IC50
MOLM-13 (MLL-AF9) cells [10] = assay: as above; type: cell-based, human; details: Homo sapiens, 264 h; MOLM-13; single agent; read-out: EPZ-5676 11-day (Primary screen) IC50
THP-1 (MLL-AF9) cells = assay: Example 7 retest: EPZ-5676 pre-treatment, second compound 72 h, Cell Titer Glo, growth inhibition; type: cell-based; details: 240 h, single agent, read-out: EPZ-5676 10-day IC50
RS4-11 (MLL-AF4) cells = assay: as above; type: cell-based; details: Homo sapiens, 240 h, single agent, read-out: EPZ-5676 10-day IC50
[11] = 14 day treatment, 156 nM Compound A2 or 63 nM Ara-C

SMILES: Nc1ccn([C@@H]2O[C@H](CO)[C@@H](O)[C@@H]2O)c(=O)n1 [Ara-C, cytarabine]
Combination effect with Compound A2 (MV4-11 (MLL-AF4) cells; MV4-11, 7 Day Cotreatment (Example 1)): Synergy (A combination index less than one indicates synergy)
Antiproliferative combination effect after Compound A2 washout (MV4-11 (MLL-AF4) cells; MV4-11, Compound A2 washed out prior to addition of the SOC agent): maintained
Antiproliferative combination effect with Compound A2 (MV4-11 (MLL-AF4) cells; MV4-11, pre-treatment model, no Compound A2 washout): synergistic
Combination effect with Compound A2 (Table 2) (MV4-11 (MLL-AF4) cells; MV4-11 MLL-AF4): synergistically
Differentiation markers CD11b and CD14 (MOLM-13 cells [1]): time and concentration dependent up-regulation
Combination effect with Compound A2 (Table 4) (MOLM-13 (MLL-AF9) cells [2]; MOLM-13 (MLL-AF9), 7 Day Cotreatment Model): Strong Synergy
Combination effect with Compound A2 (MOLM-13 (MLL-AF9) cells [2]; MOLM-13, 4 + 3 Model (4 days Compound A2 pretreatment, then 3 days co-treatment)): Synergy (A combination index less than one indicates synergy)
Combination effect with Compound A2 (MOLM-13 (MLL-AF9) cells [2]; MOLM-13, 7 Day Cotreatment (Example 1)): Synergy (A combination index less than one indicates synergy)
Combination effect, reverse order of addition (MOLM-13 (MLL-AF9) cells [2]; MOLM-13, Ara-C 3 days, then Compound A2 and Ara-C co-treatment 7 days): Synergy (Drug synergy was statistically defined by CI values less than 1)
Combination effect, reverse order of addition with Ara-C washout (MOLM-13 (MLL-AF9) cells [2]; MOLM-13, Ara-C 3 days): Combination benefit is maintained
Combination effect, reverse order of addition with Ara-C washout (MOLM-13 (MLL-AF9) cells [2]; MOLM-13, Ara-C 3 days, listed as cytarabine): essentially the same level of synergistic cell killing
Antiproliferative combination effect after Compound A2 washout (MOLM-13 (MLL-AF9) cells [2]; MOLM-13, Compound A2 washed out prior to addition of the SOC agent): durable combination benefit; also recorded: maintained
Antiproliferative combination effect with Compound A2 (MOLM-13 (MLL-AF9) cells [2]; MOLM-13, pre-treatment model, no Compound A2 washout): synergistic
Combination effect with Compound A2 (Table 2) (MOLM-13 (MLL-AF9) cells [2]): Synergy (Drug synergy was statistically defined by CI values less than 1)
Combination effect with Compound A2 (Table 2) (MOLM-13 (MLL-AF9) cells [2]; listed as cytarabine): synergistically
Combination effect with Compound A2 (Table 2) ([3]; SKM-1 AML: Non-rearranged): did not act synergistically
Effect of Compound A2 on antiproliferative activity of the second agent ([3]; SKM-1 non-MLL-rearranged (Example 5)): did not affect
Combination effect with Compound A2 (Table 3) (EOL-1 (MLL-PTD) cells): Synergy (Drug synergy was statistically defined by CI values less than 1)
Combination effect with Compound A2 (Table 3) (KOPM-88 (MLL-PTD) cells): Synergy (Drug synergy was statistically defined by CI values less than 1)
Apoptosis in combination with Compound A2 (MOLM-13 cells [4]; 156 nM Compound A2 + 63 nM Ara-C): enhance apoptosis
Sub-G1 cell population in combination with Compound A2 (MOLM-13 cells [4]; 156 nM Compound A2 + 63 nM Ara-C, at 10 and 14 days): significant increase
Apoptotic cell population, single agent (MOLM-13 cells [4]; [11]): modest increase
Sub-G1 cell population, single agent (MOLM-13 cells [4]; [11]): minimal effect

IC50 (MOLM-13 (MLL-AF9) cells [5]; MOLM-13 (MLL-AF9), read-out: EPZ-5676 10-day IC50): 75 nM
IC50 (MOLM-13 (MLL-AF9) cells [5]; MOLM-13, read-out: EPZ-5676 10-day (Retest) IC50): 75 nM
IC50 (SKM-1 (non-MLLr) cells [6]; SKM-1 (non-MLLr), read-out: EPZ-5676 10-day IC50): > 3000 nM
IC50 (SKM-1 (non-MLLr) cells [6]; SKM-1, read-out: EPZ-5676 10-day (Retest) IC50): > 3000 nM
IC50 ([7]; OCI-AML-4 (MLL-ENL), read-out: EPZ-5676 10-day IC50): > 3000 nM
IC50 ([7]; OCI-AML-4, read-out: EPZ-5676 10-day (Retest) IC50): > 3000 nM
IC50 [8]: > 3000 nM
IC50 (SKM-1 (non-MLLr) cells [9]): > 3000 nM
IC50 (MOLM-13 (MLL-AF9) cells [10]): 150 nM
IC50 (THP-1 (MLL-AF9) cells): > 3000 nM
IC50 (RS4-11 (MLL-AF4) cells): > 3000 nM
SMILES: CC(C)N(C[C@H]1O[C@@H](n2cnc3c(N)ncnc32)[C@H](O)[C@@H]1O)[C@H]1C[C@@H](CCc2nc3cc(C(C)(C)C)ccc3[nH]2)C1 [Compound A2, pinometostat]
IC50 (ML-2 (MLL-AF6) cells): > 3000 nM
Combination effect with T0070907 (PPAR antagonist) (MOLM-13 (MLL-AF9) cells [2]; MOLM-13, co-treatment model (Example 8)): Synergy (Drug synergy was statistically defined by CI values less than 1)
